These are literature values, as cited in patent publication US20240237652A1, “Biocidal Composition and Method” (ARXADA, LLC, priority 2021, published 2024).

Some results are limits rather than exact numbers.

Data set [1] has as its system bacteria, fungi, and yeast.
The conditions of data set [2]: neutral pH.

For `O=c1[nH]sc2ccccc12` [BIT, 1,2-benzisothiazolin-3-one], the “amount required for a reliable and quick biocidal activity” value in data set [1] is listed as no more than 500 ppm. Turning to Zinc pyrithione [ZPT], the solubility in water in data set [2] is 8 ppm.
